Assay results taken from PMC4114983, “The “Gate Keeper” Role of Trp222 Determines the Enantiopreference of Diketoreductase toward 2-Chloro-1-Phenylethanone” (PLoS ONE, 2014).
Where two headings read alike, the source gives them in different places.

Assays:
[1] = target: T1, WT-DKR; diketoreductase (DKR) (Acinetobacter baylyi, UniProt B1P3E1); assay: intrinsic Trp fluorescence quenching, quadratic fit; assay type: binding
T1 construct: full-length in pET22b(+), E. coli BL21(DE3); DEAE and Sephadex G-100 purified; homodimer, 283 residues per subunit
Text: (§1) intrinsic Trp fluorescence quenching, quadratic fit on WT-DKR; diketoreductase (DKR)
Target sequence in this assay (B1P3E1 entry or part of it): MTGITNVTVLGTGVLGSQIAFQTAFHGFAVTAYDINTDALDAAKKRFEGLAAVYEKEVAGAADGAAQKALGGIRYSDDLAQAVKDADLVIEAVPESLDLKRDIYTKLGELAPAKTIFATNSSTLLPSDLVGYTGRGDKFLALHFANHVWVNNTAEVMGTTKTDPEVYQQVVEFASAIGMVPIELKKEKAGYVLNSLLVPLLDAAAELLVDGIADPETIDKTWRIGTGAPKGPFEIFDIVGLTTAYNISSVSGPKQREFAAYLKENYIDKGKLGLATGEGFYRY

diketoreductase (DKR) [2] = target: T2, diketoreductase (DKR) (Acinetobacter baylyi, UniProt B1P3E1, W222F); assay: as above; assay type: binding
T2 construct: full-length in pET22b(+), E. coli BL21(DE3); DEAE and Sephadex G-100 purified; homodimer, 283 residues per subunit
Text: as §1

[3] = target: T1, WT-DKR; diketoreductase (DKR); assay: as above; assay type: binding; remark: listed apart in the source
Text: as §1
Target sequence in this assay (B1P3E1 entry or part of it W222L): as the sequence (B1P3E1 entry or part of it) above

diketoreductase (DKR) [4] = target: T3, diketoreductase (DKR) (Acinetobacter baylyi, UniProt B1P3E1, W222V); assay: as above; assay type: binding
T3 construct: full-length in pET22b(+), E. coli BL21(DE3); DEAE and Sephadex G-100 purified; homodimer, 283 residues per subunit
Text: as §1

diketoreductase (DKR) [5] = target: T4, diketoreductase (DKR) (Acinetobacter baylyi, UniProt B1P3E1, W222Y); assay: as above; assay type: binding
T4 construct: full-length in pET22b(+), E. coli BL21(DE3); DEAE and Sephadex G-100 purified; homodimer, 283 residues per subunit
Text: as §1

diketoreductase (DKR) [6] = target: T5, diketoreductase (DKR) (Acinetobacter baylyi, UniProt B1P3E1, W222M); assay: as above; assay type: binding
T5 construct: full-length in pET22b(+), E. coli BL21(DE3); DEAE and Sephadex G-100 purified; homodimer, 283 residues per subunit
Text: as §1

[7] = target: T1, WT-DKR; diketoreductase (DKR); assay: NADH oxidation, absorbance; assay type: biochemical; settings: 0.15 mM NADH constant, potassium phosphate pH 6.0; average of two measurements
Text: (§2) NADH oxidation, absorbance on WT-DKR; diketoreductase (DKR)
Target sequence in this assay (B1P3E1 entry or part of it): as above

[8] = target: T6, WT-DKR; diketoreductase (DKR) (Acinetobacter baylyi, UniProt B1P3E1, W222M); assay: NADH oxidation, absorbance; assay type: biochemical; settings: 0.15 mM NADH constant, potassium phosphate pH 6.0; average of two measurements
T6 construct: full-length in pET22b(+), E. coli BL21(DE3); DEAE and Sephadex G-100 purified; homodimer, 283 residues per subunit
Text: as §2

diketoreductase (DKR) [9] = target: T3, diketoreductase (DKR); assay: NADH oxidation, absorbance; assay type: biochemical; settings: 0.15 mM NADH constant, potassium phosphate pH 6.0; average of two measurements
Text: as §2

diketoreductase (DKR) [10] = target: T4, diketoreductase (DKR); assay: NADH oxidation, absorbance; assay type: biochemical; settings: 0.15 mM NADH constant, potassium phosphate pH 6.0; average of two measurements
Text: as §2

diketoreductase (DKR) [11] = target: T7, diketoreductase (DKR) (Acinetobacter baylyi, UniProt B1P3E1, W222L); assay: NADH oxidation, absorbance; assay type: biochemical; settings: 0.15 mM NADH constant, potassium phosphate pH 6.0; average of two measurements
T7 construct: full-length in pET22b(+), E. coli BL21(DE3); DEAE and Sephadex G-100 purified; homodimer, 283 residues per subunit
Text: as §2

[12] = target: T8, WT-DKR; diketoreductase (DKR) (Acinetobacter baylyi, UniProt B1P3E1, W222F); assay: NADH oxidation, absorbance; assay type: biochemical; settings: 0.15 mM NADH constant, potassium phosphate pH 6.0; average of two measurements
T8 construct: full-length in pET22b(+), E. coli BL21(DE3); DEAE and Sephadex G-100 purified; homodimer, 283 residues per subunit
Text: as §2

T4 sequence (B1P3E1 entry or part of it W222Y): as the sequence (B1P3E1 entry or part of it) above
T3 sequence (B1P3E1 entry or part of it W222V): as the sequence (B1P3E1 entry or part of it) above
T2 sequence (B1P3E1 entry or part of it W222F): as the sequence (B1P3E1 entry or part of it) above
T6 sequence (B1P3E1 entry or part of it W222M): as the sequence (B1P3E1 entry or part of it) above
T7 sequence (B1P3E1 entry or part of it W222L): as the sequence (B1P3E1 entry or part of it) above
T8 sequence (B1P3E1 entry or part of it W222F): as the sequence (B1P3E1 entry or part of it) above
T5 sequence (B1P3E1 entry or part of it W222M): as the sequence (B1P3E1 entry or part of it) above

`O=C(CCl)c1ccccc1` [2-chloro-1-phenylethanone] gave a Kd [1] of 460 µM, a Kd (diketoreductase (DKR) [2]) of 484 µM and a Kd [3] of 458 µM. The Kd (diketoreductase (DKR) [4]) was 507 µM, the Kd (diketoreductase (DKR) [5]) was 455 µM and the Kd (diketoreductase (DKR) [6]) was 457 µM. It also gave a Km [7] of 1130 µM, a Km [8] of 2800 µM and a Km (diketoreductase (DKR) [9]) of 302 µM. For the same compound, the Km (diketoreductase (DKR) [10]) was 2510 µM, the Km (diketoreductase (DKR) [11]) was 3160 µM and the Km [12] was 4180 µM.
